Target: T1, human P2X4 (Homo sapiens, UniProt Q99571)
T1 sequence (Q99571 1-388): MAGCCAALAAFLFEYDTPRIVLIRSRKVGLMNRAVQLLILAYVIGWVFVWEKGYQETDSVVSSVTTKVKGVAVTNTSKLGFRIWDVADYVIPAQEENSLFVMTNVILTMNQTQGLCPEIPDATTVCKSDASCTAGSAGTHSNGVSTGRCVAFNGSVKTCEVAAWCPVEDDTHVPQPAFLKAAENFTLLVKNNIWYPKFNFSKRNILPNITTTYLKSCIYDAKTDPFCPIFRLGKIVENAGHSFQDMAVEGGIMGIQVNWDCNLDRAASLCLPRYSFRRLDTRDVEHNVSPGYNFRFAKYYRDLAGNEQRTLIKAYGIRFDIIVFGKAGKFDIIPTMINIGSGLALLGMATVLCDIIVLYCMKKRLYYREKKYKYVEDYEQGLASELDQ
Assay: Human P2X4 HEK Cell FLIPR Assay
Format: cell-based
Conditions: agonist Bz-ATP at EC80; for Emax: HEK293, HEK293 cells, percentage of maximal inhibition, read-out: Human P2X4 HEK Cells (FLIPR Assay) avg Efficacy [%]; for IC50: HEK293 cells, individual values listed where some fall outside detection range
How it was run: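 Calcium flux read by FLIPR for 120 sec after Bz-ATP challenge at EC80 (established each assay day), following 30 min room-temperature compound preincubation in dye-loaded stable human P2X4 HEK293 cells. Peak RFU over basal normalized to agonist control; IC50, maximal inhibition and Hill coefficient from triplicate means.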

| Compound | Emax | IC50 |
| --- | --- | --- |
| NS(=O)(=O)c1cc(NC(=O)Cc2ccccc2OC(F)F)ccc1-n1cnc(C(F)(F)F)n1 [Example 57, 2-[2-(Difluoromethoxy)phenyl]-N-{3-sulfamoyl-4-[3-(trifluoromethyl)-1H-1,2,4-triazol-1-yl]phenyl}acetamide] | 71% | 141 nM |
| Cc1cn(-c2ccc(NC(=O)Cc3ccccc3Cl)cc2S(N)(=O)=O)c(C)n1 [Example 47, 2-(2-Chlorophenyl)-N-[4-(2,4-dimethyl-1H-imidazol-1-yl)-3-sulfamoylphenyl]-acetamide] | 66% | 472 nM |
| NS(=O)(=O)c1cc(NC(=O)C(F)(F)c2ccccc2Cl)ccc1-n1cnc(C(F)(F)F)n1 [Example 61, 2-(2-Chlorophenyl)-2,2-difluoro-N-{3-sulfamoyl-4-[3-(trifluoromethyl)-1H-1,2,4-triazol-1-yl]phenyl}acetamide] | 79% | 400 nM |
| COc1ccc(CC(=O)Nc2ccc(-c3cncc(C(F)(F)F)c3)c(S(N)(=O)=O)c2)c(F)c1 [Example 457, 2-(2-Fluoro-4-methoxyphenyl)-N-{3-sulfamoyl-4-[5-(trifluoromethyl)pyridin-3-yl]phenyl}acetamide] | 70% | 558 nM |
| CC(C)Oc1ncc(-c2ccc(NC(=O)Cc3ccccc3Cl)cc2S(N)(=O)=O)cn1 [Example 311, 2-(2-Chlorophenyl)-N-{4-[2-(propan-2-yloxy)pyrimidin-5-yl]-3-sulfamoylphenyl}acetamide] | 104% | 285 nM |
| NS(=O)(=O)c1cc(NC(=O)Cc2ccccc2Cl)c(C(F)(F)F)cc1-c1cnn(C(F)F)c1 [Example 491, 2-(2-Chlorophenyl)-N-{4-[1-(difluoromethyl)-1H-pyrazol-4-yl]-5-sulfamoyl-2-(trifluoromethyl)phenyl}acetamide] | 67% | 9090 nM |
| NS(=O)(=O)c1cc(NC(=O)Cc2ccc(C(F)(F)F)cc2)ccc1-c1cncc(C(F)(F)F)c1 [Example 446, N-{3-Sulfamoyl-4-[5-(trifluoromethyl)pyridin-3-yl]phenyl}-2-[4-(trifluoromethyl)phenyl]acetamide] | 76% | 621 nM |
| CC(C)(C)c1cc(-c2ccc(NC(=O)Cc3ccccc3Cl)cc2S(N)(=O)=O)n[nH]1 [Example 292, N-[4-(5-tert-Butyl-1H-pyrazol-3-yl)-3-sulfamoylphenyl]-2-(2-chlorophenyl)acetamide] | 87% | 58 nM |
| COc1ccc(CC(=O)Nc2ccc(-n3cc(C#N)cn3)c(S(N)(=O)=O)c2)cc1 [Example 196, N-[4-(4-Cyano-1H-pyrazol-1-yl)-3-sulfamoylphenyl]-2-(4-methoxyphenyl)acetamide] | 75% | 164 nM |
| COc1nc(-c2ccc(NC(=O)Cc3ccccc3Cl)cc2S(N)(=O)=O)cs1 [Example 421, 2-(2-Chlorophenyl)-N-[4-(2-methoxy-1,3-thiazol-4-yl)-3-sulfamoylphenyl]acetamide] | 86% | 680 nM |
| NS(=O)(=O)c1cc(NC(=O)Cc2ccccc2F)ccc1-c1cccnc1 [Example 338, 2-(2-Fluorophenyl)-N-[4-(pyridin-3-yl)-3-sulfamoylphenyl]acetamide] | 91% | 32 nM |
| NS(=O)(=O)c1cc(NC(=O)Cc2ccccc2OC(F)(F)F)ccc1-n1cc(Cl)cn1 [Example 92, N-[4-(4-Chloro-1H-pyrazol-1-yl)-3-sulfamoylphenyl]-2-[2-(trifluoromethoxy)-phenyl]acetamide] | 92% | 143 nM |
| NS(=O)(=O)c1cc(NC(=O)Cc2c(Cl)cccc2C(F)(F)F)ccc1-n1cc(C(F)(F)F)cn1 [Example 134, 2-[2-Chloro-6-(trifluoromethyl)phenyl]-N-{3-sulfamoyl-4-[4-(trifluoromethyl)-1H-pyrazol-1-yl]phenyl}acetamide] | 89% | 147 nM |
| CC(C)(C)c1cn(-c2ccc(NC(=O)Cc3ccccc3Cl)cc2S(N)(=O)=O)cn1 [Example 40, N-[4-(4-tert-Butyl-1H-imidazol-1-yl)-3-sulfamoylphenyl]-2-(2-chlorophenyl)acetamide] | 90% | 1240 nM |
| NS(=O)(=O)c1cc(NC(=O)Cc2ccccc2Cl)ccc1-c1cnn(CC2CCO2)c1 (stereo not shown) [Example 283, 2-(2-Chlorophenyl)-N-(4-{1-[oxetan-2-ylmethyl]-1H-pyrazol-4-yl}-3-sulfamoylphenyl)-acetamide] | 94% | 60 nM |
| Cc1ccc(CC(=O)Nc2ccc(-c3cncc(F)c3)c(S(N)(=O)=O)c2)c(F)c1 [Example 476, 2-(2-Fluoro-4-methylphenyl)-N-[4-(5-fluoropyridin-3-yl)-3-sulfamoylphenyl]acetamide] | 89% | 58 nM |

| Compound | Emax | IC50 |
| --- | --- | --- |
| NS(=O)(=O)c1cc(NC(=O)Cc2ccccc2F)ccc1-n1nnc2c(F)cc(F)cc21 [Example 480, N-[4-(4,6-Difluoro-1H-benzotriazol-1-yl)-3-sulfamoylphenyl]-2-(2-fluorophenyl)acetamide] | 105% | 125 nM |
| NS(=O)(=O)c1cc(NC(=O)Cc2ccccc2O)ccc1-n1cc(Cl)cn1 [Example 85, N-[4-(4-Chloro-1H-pyrazol-1-yl)-3-sulfamoylphenyl]-2-(2-hydroxyphenyl)acetamide] | 92% | 42 nM |
| CC(C)Oc1cnn(-c2ccc(NC(=O)Cc3ccccc3Cl)cc2S(N)(=O)=O)c1 [Example 27, 2-(2-Chlorophenyl)-N-[4-(4-isopropoxy-1H-pyrazol-1-yl)-3-sulfamoylphenyl]-acetamide] | 74% | 70 nM |
| NS(=O)(=O)c1cc(NC(=O)Cc2ccccc2Cl)ccc1-n1cc(Cl)c(C(F)(F)F)n1 [Example 541, 2-(2-Chlorophenyl)-N-{4-[4-chloro-3-(trifluoromethyl)-1H-pyrazol-1-yl]-3-sulfamoylphenyl}acetamide] | 50% | > 25000 nM |
| NS(=O)(=O)c1cc(NC(=O)Cc2ccccc2Cl)ccc1-c1cnn(C2CCCC2)c1 [Example 329, 2-(2-Chlorophenyl)-N-[4-(1-cyclopentyl-1H-pyrazol-4-yl)-3-sulfamoylphenyl]acetamide] | 100% | 13 nM |
| NS(=O)(=O)c1cc(NC(=O)Cc2ccccc2F)ccc1-n1cc(NCC(F)F)cn1 [Example 514, N-(4-{4-[(2,2-Difluoroethyl)amino]-1H-pyrazol-1-yl}-3-sulfamoylphenyl)-2-(2-fluorophenyl)acetamide] | 102% | 106 nM |
| NS(=O)(=O)c1cc(NC(=O)Cc2ccccc2Cl)ccc1-c1cnc(C2CC2)o1 [Example 439, 2-(2-Chlorophenyl)-N-[4-(2-cyclopropyl-1,3-oxazol-5-yl)-3-sulfamoylphenyl]acetamide] | 94% | 4 nM |
| Cc1noc(C)c1-c1ccc(NC(=O)Cc2ccccc2Cl)cc1S(N)(=O)=O [Example 275, 2-(2-Chlorophenyl)-N-[4-(3,5-dimethyl-1,2-oxazol-4-yl)-3-sulfamoylphenyl]acetamide] | 82% | 507 nM |
| NS(=O)(=O)c1cc(NC(=O)Cc2ccccc2Cl)ccc1-c1cnn(C2CCOC2)c1 (stereo not shown) [Example 300, 2-(2-Chlorophenyl)-N-{3-sulfamoyl-4-[1-(tetrahydrofuran-3-yl)-1H-pyrazol-4-yl]phenyl}acetamide] | 100% | 27 nM |
| CCOc1ccccc1CC(=O)Nc1ccc(-n2cc(C(F)(F)F)cn2)c(S(N)(=O)=O)c1 [Example 176, 2-(2-Ethoxyphenyl)-N-{3-sulfamoyl-4-[4-(trifluoromethyl)-1H-pyrazol-1-yl]phenyl}acetamide] | 71% | 268 nM |
| NS(=O)(=O)c1cc(NC(=O)Cc2ccccc2Cl)ccc1-c1cc(C(F)(F)F)ccn1 [Example 318, 2-(2-Chlorophenyl)-N-{3-sulfamoyl-4-[4-(trifluoromethyl)pyridin-2-yl]phenyl}acetamide] | 43% | > 25000 nM |
| N#Cc1cnn(-c2ccc(NC(=O)Cc3c(F)cccc3Cl)cc2S(N)(=O)=O)c1 [Example 183, 2-(2-Chloro-6-fluorophenyl)-N-[4-(4-cyano-1H-pyrazol-1-yl)-3-sulfamoylphenyl]-acetamide] | 96% | 39 nM |
| COc1ccc(CC(=O)Nc2ccc(-n3cc(F)cn3)c(S(N)(=O)=O)c2)cc1 [Example 153, N-[4-(4-Fluoro-1H-pyrazol-1-yl)-3-sulfamoylphenyl]-2-(4-methoxyphenyl)acetamide] | 74% | 182 nM |
| NS(=O)(=O)c1cc(NC(=O)Cc2ccccc2Cl)ccc1-c1cccnc1 [Example 354, 2-(2-Chlorophenyl)-N-[4-(pyridin-3-yl)-3-sulfamoylphenyl]acetamide] | 92% | 60 nM |
| NS(=O)(=O)c1cc(NC(=O)Cc2ccccc2Cl)ccc1-n1ccc(Cl)cc1=O [Example 2, N-[4-(4-Chloro-2-oxopyridin-1(2H)-yl)-3-sulfamoylphenyl]-2-(2-chlorophenyl)-acetamide] | 50% | 19400 nM |
| N#Cc1cnn(-c2ccc(NC(=O)Cc3ccc(Cl)cc3)cc2S(N)(=O)=O)c1 [Example 181, 2-(4-Chlorophenyl)-N-[4-(4-cyano-1H-pyrazol-1-yl)-3-sulfamoylphenyl]acetamide] | 59% | 179 nM |
